PubChem BioAssay AID1919002 (Molecular Pharmacology Branch, DTP, NCI, 2023)
Several values for one entry are separate records, joined by “and”; a condition that tells them apart may be missing. Equal values may be shown once.

Test system: 743489-274-T-PDC complex spheroid growth
Assay: Anticancer human tumor 743489-274-T-PDC patient-derived renal cell carcinoma cell line growth inhibition [AhR]
Conditions: for viability, T/C: stronger effect = lower value
Source text: Multicellular complex tumor spheroid response to aryl hydrocarbon receptor antagonists in combination with a variety of drugs and investigational agents in selected tumor cell lines
The current study was undertaken to assess response to aryl hydrocarbon receptor antagonists in combination with standard-of-care drugs and investigational agents in solid tumor complex spheroid models. Complex spheroids include a stromal component modeled by human endothelial cells (HUVEC) and fibroblasts modeled by human mesenchymal stem cells (MSCs). The concentration ranges selected for each drug and investigational agent were based upon clinically achievable concentrations if the clinical Cmax of the agent was known.
Compounds. The drugs and investigational agents: BAY 2416964 (NSC825713), GNF351 (NSC835774), CH-223191 (NSC835775), CPI-455 (NSC825282), aza-TdCyd (NSC777586), decitabine (NSC127716), belinostat (NSC758774), entinostat (NSC756642), pevonedistat (NSC761192), tazemetostat (NSC777109), talazoparib (NSC765396), olaparib (NSC753686), selinexor (NSC780203), nedisertib (M3814, NSC802822), bortezomib (NSC756655), venetoclax (NSC766270), doxorubicin (NSC123127), elimusertib (BAY189344, NSC800525), ceralasertib (AZD6738, NSC777638), TAK-243 (NSC785004), alisertib (NSC759677), etoposide (NSC141540), topotecan (NSC609699), eribulin (NSC707389), gemcitabine (NSC613327), carboplatin (NSC241240), cisplatin (NSC119875), and SN-38 (NSC673596) were obtained from the National Cancer Institute (NCI) Developmental Therapeutics Program Chemical Repository (32). The FDA-approved anticancer drug set is available from the Developmental Therapeutics Program at https://dtp.cancer.gov/organization/dscb/obtaining/available plates.htm. […] The stock solutions were prepared in dimethyl sulfoxide (DMSO, Sigma-Aldrich, St. Louis, MO, cat. D2650), except for the platinum compounds which were prepared in saline (Quality Biological, Gaithersburg, MD, cat. 114-055-101), at 800-fold the tested concentration and stored at -70 degrees C prior to their use. All drugs and investigational agents were tested over a range starting from a high concentration at or near the clinical Cmax and decreasing in half-log increments. If the clinical Cmax for an agent had not been determined, the highest concentration tested was 10 microM (Table 1).
Cell Culture. All cells were maintained in an incubator at 37 degrees C and 5% CO2 with 95% humidity. The PDC lines were cultured according to standard operating procedures established by the NCI PDMR (https://pdmr.cancer.gov). Briefly, all PDCs were thawed and cultured in Matrigel-coated flasks prepared with a working solution of 1X Ham's F-12 nutrient mix, without supplementation (Invitrogen, Waltham, MA, cat. 11765054), 100 U/mL penicillin-streptomycin (Invitrogen, cat. 15140122), and 2.5% Matrigel (Corning Inc., Corning, NY, cat. 354248) for the first three passages. All PDCs were cultured in complete DMEM/F-12 media containing advanced DMEM/F-12 (Invitrogen, cat. 12634028), 4.9% defined fetal bovine serum, heat inactivated (HyClone Laboratories Inc., Logan, UT, cat. SH30070.03HI), 389 ng/mL hydrocortisone (Sigma-Aldrich, cat. H4001), 9.7 ng/mL human EGF recombinant protein (Invitrogen, cat. PHG0313), 23.4 microg/mL adenine (Sigma-Aldrich, cat. A2786), 97.3 U/mL penicillin-streptomycin (Invitrogen, cat. 15140122), 1.9 mM L-glutamine (Invitrogen, cat. 25030081), and 9.7 microM Y-27632 dihydrochloride (Tocris Bioscience, Bristol, United Kingdom, cat. 1254). The PDCs were cultured in complete DMEM/F12 media without 10 microM Y-27632 dihydrochloride for at least two passages prior to the screen. The established cell lines NCI-H1341 and […] were cultured in DMEM/F-12, HEPES (Invitrogen, cat. 11330032), 5% defined fetal bovine serum (HyClone Laboratories Inc., cat. SH30070.03), ITS premix universal culture supplement [insulin (5 microg/mL), transferrin (5 microg/mL), and selenious acid (5 ng/mL)] […]

[1] = curve of first compound, second compound 0.1 µM
[2] = curve of first compound, second compound 0.316 µM
[3] = curve of first compound, second compound 1 µM
[4] = curve of first compound, second compound 3.16 µM
[5] = curve of first compound, second compound 10 µM
[6] = second compound 0.1 µM, first compound 0.00949 µM
[7] = second compound 0.1 µM, first compound 0.03 µM
[8] = second compound 0.1 µM, first compound 0.0949 µM
[9] = second compound 0.1 µM, first compound 0.3 µM
[10] = second compound 0.1 µM, first compound 0.949 µM
[11] = second compound 0.1 µM, first compound 3 µM
[12] = second compound 0.316 µM, first compound 0.00949 µM
[13] = second compound 0.316 µM, first compound 0.03 µM
[14] = second compound 0.316 µM, first compound 0.0949 µM
[15] = second compound 0.316 µM, first compound 0.3 µM
[16] = second compound 0.316 µM, first compound 0.949 µM
[17] = second compound 0.316 µM, first compound 3 µM
[18] = second compound 1 µM, first compound 0.00949 µM
[19] = second compound 1 µM, first compound 0.03 µM
[20] = second compound 1 µM, first compound 0.0949 µM
[21] = second compound 1 µM, first compound 0.3 µM
[22] = second compound 1 µM, first compound 0.949 µM
[23] = second compound 1 µM, first compound 3 µM
[24] = second compound 3.16 µM, first compound 0.00949 µM
[25] = second compound 3.16 µM, first compound 0.03 µM
[26] = second compound 3.16 µM, first compound 0.0949 µM
[27] = second compound 3.16 µM, first compound 0.3 µM
[28] = second compound 3.16 µM, first compound 0.949 µM
[29] = second compound 3.16 µM, first compound 3 µM
[30] = second compound 10 µM, first compound 0.00949 µM
[31] = second compound 10 µM, first compound 0.03 µM
[32] = second compound 10 µM, first compound 0.0949 µM
[33] = second compound 10 µM, first compound 0.3 µM
[34] = second compound 10 µM, first compound 0.949 µM
[35] = second compound 10 µM, first compound 3 µM
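Also: spheroids exposed to agents for 7 days before readout.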
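For viability, T/C in this document: 100% = DMSO vehicle control wells.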

SMILES: CCN(c1cc(-c2ccc(CN3CCOCC3)cc2)cc(C(=O)NCc2c(C)cc(C)[nH]c2=O)c1C)C1CCOCC1 + Cc1cncc(-c2nc(NCCc3c[nH]c4ccccc34)c3ncn(C(C)C)c3n2)c1
- IC50 [1]: > 3 µM
- IC50 [2]: > 3 µM
- IC50 [3]: > 3 µM
- IC50 [4]: > 3 µM
- IC50 [5]: > 3 µM
- viability, T/C [6]: 102%
- viability, T/C [7]: 102%
- viability, T/C [8]: 99.9%
- viability, T/C [9]: 91.3%
- viability, T/C [10]: 92.7%
- viability, T/C [11]: 94.4%
- viability, T/C [12]: 94.8%
- viability, T/C [13]: 104%
- viability, T/C [14]: 93.1%
- viability, T/C [15]: 88.1%
- viability, T/C [16]: 85.9%
- viability, T/C [17]: 94%
- viability, T/C [18]: 99.8%
- viability, T/C [19]: 97.6%
- viability, T/C [20]: 95.3%
- viability, T/C [21]: 93%
- viability, T/C [22]: 104%
- viability, T/C [23]: 101%
- viability, T/C [24]: 105%
- viability, T/C [25]: 114%
- viability, T/C [26]: 102%
- viability, T/C [27]: 104%
- viability, T/C [28]: 102%
- viability, T/C [29]: 103%
- viability, T/C [30]: 122%
- viability, T/C [31]: 119%
- viability, T/C [32]: 122%
- viability, T/C [33]: 128%
- viability, T/C [34]: 127%
- viability, T/C [35]: 122%

SMILES: CCN(c1cc(-c2ccc(CN3CCOCC3)cc2)cc(C(=O)NCc2c(C)cc(C)[nH]c2=O)c1C)C1CCOCC1 + CC(CO)NC(=O)c1cc(-c2ccc(Cl)cc2)nn(-c2cnn(C)c2)c1=O
- IC50 [1]: > 3 µM
- IC50 [2]: > 3 µM
- IC50 [3]: > 3 µM
- IC50 [4]: > 3 µM
- IC50 [5]: > 3 µM
- viability, T/C [6]: 103%
- viability, T/C [7]: 103%
- viability, T/C [8]: 99.6%
- viability, T/C [9]: 93.5%
- viability, T/C [10]: 93.8%
- viability, T/C [11]: 112%
- viability, T/C [12]: 97.6%
- viability, T/C [13]: 96.5%
- viability, T/C [14]: 103%
- viability, T/C [15]: 102%
- viability, T/C [16]: 90.5%
- viability, T/C [17]: 92.6%
- viability, T/C [18]: 104%
- viability, T/C [19]: 102%
- viability, T/C [20]: 107%
- viability, T/C [21]: 92.4%
- viability, T/C [22]: 94%
- viability, T/C [23]: 106%
- viability, T/C [24]: 84.4%
- viability, T/C [25]: 92.3%
- viability, T/C [26]: 103%
- viability, T/C [27]: 82.6%
- viability, T/C [28]: 92.7%
- viability, T/C [29]: 98.8%
- viability, T/C [30]: 105%
- viability, T/C [31]: 106%
- viability, T/C [32]: 91.7%
- viability, T/C [33]: 104%
- viability, T/C [34]: 101%
- viability, T/C [35]: 91.1%

SMILES: CC1COCCN1c1cc(-c2ccnn2C)c2ccnc(-c3ccn[nH]3)c2n1 (configuration not stated)
- viability, T/C (compound 0.00316 µM): 112% and 105% and 104%
- viability, T/C (compound 0.01 µM): 106% and 114% and 100%
- viability, T/C (compound 0.0316 µM): 101% (2×) and 104%
- viability, T/C (compound 0.1 µM): 106% and 102% and 103%
- viability, T/C (compound 0.316 µM): 101% and 86.3% and 100%
- viability, T/C (compound 1 µM): 85.1% and 68% and 73.8%
- IC50 (curve of compound): > 1 µM

SMILES: COc1cc(Nc2ncc3c(n2)-c2ccc(Cl)cc2C(c2c(F)cccc2OC)=NC3)ccc1C(=O)O + Cc1ccccc1N=Nc1ccc(NC(=O)c2ccnn2C)c(C)c1
- IC50 [1]: > 10 µM
- IC50 [2]: > 10 µM
- IC50 [3]: > 10 µM
- IC50 [4]: > 10 µM
- IC50 [5]: > 10 µM
- viability, T/C (second compound 0.1 µM, first compound 0.0316 µM): 93.3%
- viability, T/C (second compound 0.1 µM, first compound 0.1 µM): 93%
- viability, T/C (second compound 0.1 µM, first compound 0.316 µM): 86.6%
- viability, T/C (second compound 0.1 µM, first compound 1 µM): 87.5%
- viability, T/C (second compound 0.1 µM, first compound 3.16 µM): 95.4%
- viability, T/C (second compound 0.1 µM, first compound 10 µM): 79.8%
- viability, T/C (second compound 0.316 µM, first compound 0.0316 µM): 91.4%
- viability, T/C (second compound 0.316 µM, first compound 0.1 µM): 88.1%
- viability, T/C (second compound 0.316 µM, first compound 0.316 µM): 79.9%
- viability, T/C (second compound 0.316 µM, first compound 1 µM): 77.2%
- viability, T/C (second compound 0.316 µM, first compound 3.16 µM): 87.1%
- viability, T/C (second compound 0.316 µM, first compound 10 µM): 90%
- viability, T/C (second compound 1 µM, first compound 0.0316 µM): 93%
- viability, T/C (second compound 1 µM, first compound 0.1 µM): 98%
- viability, T/C (second compound 1 µM, first compound 0.316 µM): 75.5%
- viability, T/C (second compound 1 µM, first compound 1 µM): 77%
- viability, T/C (second compound 1 µM, first compound 3.16 µM): 83.4%
- viability, T/C (second compound 1 µM, first compound 10 µM): 81.5%
- viability, T/C (second compound 3.16 µM, first compound 0.0316 µM): 80.4%
- viability, T/C (second compound 3.16 µM, first compound 0.1 µM): 94.2%
- viability, T/C (second compound 3.16 µM, first compound 0.316 µM): 70.5%
- viability, T/C (second compound 3.16 µM, first compound 1 µM): 78.4%
- viability, T/C (second compound 3.16 µM, first compound 3.16 µM): 75.2%
- viability, T/C (second compound 3.16 µM, first compound 10 µM): 82%
- viability, T/C (second compound 10 µM, first compound 0.0316 µM): 76.8%
- viability, T/C (second compound 10 µM, first compound 0.1 µM): 81.2%
- viability, T/C (second compound 10 µM, first compound 0.316 µM): 76.2%
- viability, T/C (second compound 10 µM, first compound 1 µM): 74.3%
- viability, T/C (second compound 10 µM, first compound 3.16 µM): 65.8%
- viability, T/C (second compound 10 µM, first compound 10 µM): 78.7%
